Data reported in ChEMBL document CHEMBL1629650 (2009).
In brackets after ≈: the same amount, converted by molar mass.

What was measured:
Format in all cases: functional
[1] = test system: Mycobacterium tuberculosis; experiment: Antibacterial activity against Mycobacterium tuberculosis B70 harboring embB ATG-ATC (M306I) mutation in embB by modified conventional agar proportion method
[2] = test system: Mycobacterium tuberculosis; experiment: Antibacterial activity against Mycobacterium tuberculosis Rv39 harboring embB GGC-CGC (G324R) mutation in embB by modified conventional agar proportion method
[3] = test system: Mycobacterium tuberculosis; experiment: Antibacterial activity against HYG cassette-positive Mycobacterium tuberculosis RvAS4 harboring embB M306I mutant gene by modified conventional agar proportion method
[4] = test system: Mycobacterium tuberculosis; experiment: Antibacterial activity against HYG cassette-positive Mycobacterium tuberculosis RvAS2 harboring embB M306V mutant gene by modified conventional agar proportion method
[5] = test system: Mycobacterium tuberculosis; experiment: Antibacterial activity against HYG cassette-positive Mycobacterium tuberculosis BAS7 harboring embB M306I mutant gene by modified conventional agar proportion method
[6] = test system: Mycobacterium tuberculosis; experiment: Antibacterial activity against Mycobacterium tuberculosis Rv23 harboring embB ATG-GTG (M306V) mutation in embB by modified conventional agar proportion method
[7] = test system: Mycobacterium tuberculosis; experiment: Antibacterial activity against Mycobacterium tuberculosis B97 harboring embB ATG-ATC (M306I) mutation in embB by modified conventional agar proportion method
[8] = test system: Mycobacterium tuberculosis; experiment: Antibacterial activity against Mycobacterium tuberculosis B74 harboring embB GAC-GGC (D300G) mutation in embB by modified conventional agar proportion method
[9] = test system: Mycobacterium tuberculosis; experiment: Antibacterial activity against Mycobacterium tuberculosis B79 harboring embB GGC-CGC (G324R) mutation in embB by modified conventional agar proportion method
[10] = test system: Mycobacterium tuberculosis; experiment: Antibacterial activity against HYG cassette-positive Mycobacterium tuberculosis BAS8 harboring embB M306I mutant gene by modified conventional agar proportion method
[11] = test system: Mycobacterium tuberculosis; experiment: Antibacterial activity against Mycobacterium tuberculosis B56 harboring embB ATG-GTG (M306V) mutation in embB by modified conventional agar proportion method
[12] = test system: Mycobacterium tuberculosis; experiment: Antibacterial activity against Mycobacterium tuberculosis B55 harboring embB ATG-GTG (M306V) mutation in embB by modified conventional agar proportion method
[13] = test system: Mycobacterium tuberculosis; experiment: Antibacterial activity against Mycobacterium tuberculosis Rv21 harboring embB GAT-TAT (D328Y) mutation in embB by modified conventional agar proportion method
[14] = test system: Mycobacterium tuberculosis; experiment: Antibacterial activity against Mycobacterium tuberculosis B52 harboring embB ATG-GTG (M306V) mutation in embB by modified conventional agar proportion method
[15] = test system: Mycobacterium tuberculosis; experiment: Antibacterial activity against HYG cassette-positive Mycobacterium tuberculosis Rv4402 harboring embB M306I mutant gene by modified conventional agar proportion method
[16] = test system: Mycobacterium tuberculosis; experiment: Antibacterial activity against HYG cassette-negative EMB-resistant Mycobacterium tuberculosis B54 harboring embB M306I mutant gene by modified conventional agar proportion method
[17] = test system: Mycobacterium tuberculosis; experiment: Antibacterial activity against HYG cassette-positive Mycobacterium tuberculosis B5402 harboring embB M306I mutant gene by modified conventional agar proportion method
[18] = test system: Mycobacterium tuberculosis; experiment: Antibacterial activity against HYG cassette-positive Mycobacterium tuberculosis Rv8102 harboring embB M306V mutant gene by modified conventional agar proportion method
[19] = test system: Mycobacterium tuberculosis; experiment: Antibacterial activity against Mycobacterium tuberculosis Rv7 harboring embB ATG-GTG (M306V) mutation in embB by modified conventional agar proportion method
[20] = test system: Mycobacterium tuberculosis; experiment: Antibacterial activity against HYG cassette-positive Mycobacterium tuberculosis B5202 harboring embB M306V mutant gene by modified conventional agar proportion method
[21] = test system: Mycobacterium tuberculosis; experiment: Antibacterial activity against HYG cassette-negative EMB-resistant Mycobacterium tuberculosis Rv8 harboring embB M306V mutant gene by modified conventional agar proportion method
[22] = test system: Mycobacterium tuberculosis; experiment: Antibacterial activity against Mycobacterium tuberculosis B99 harboring embB CGC-CAC (R321H) mutation in embB by modified conventional agar proportion method
[23] = test system: Mycobacterium tuberculosis; experiment: Antibacterial activity against HYG cassette-positive Mycobacterium tuberculosis RvAS1 harboring embB M306V mutant gene by modified conventional agar proportion method
[24] = test system: Mycobacterium tuberculosis; experiment: Antibacterial activity against Mycobacterium tuberculosis Rv17 harboring embB ATG-GTG (M306V) mutation in embB by modified conventional agar proportion method
[25] = test system: Mycobacterium tuberculosis; experiment: Antibacterial activity against Mycobacterium tuberculosis B53 harboring embB GAT-TAT (D328Y) mutation in embB by modified conventional agar proportion method
[26] = test system: Mycobacterium tuberculosis; experiment: Antibacterial activity against Mycobacterium tuberculosis B64 harboring embB ATG-GTG (M306V) mutation in embB by modified conventional agar proportion method
[27] = test system: Mycobacterium tuberculosis; experiment: Antibacterial activity against Mycobacterium tuberculosis B84 harboring embB ATG-ATC (M306I) mutation in embB by modified conventional agar proportion method
[28] = test system: Mycobacterium tuberculosis; experiment: Antibacterial activity against Mycobacterium tuberculosis B59 harboring embB ATG-GTG (M306V) mutation in embB by modified conventional agar proportion method
[29] = test system: Mycobacterium tuberculosis; experiment: Antibacterial activity against HYG cassette-positive Mycobacterium tuberculosis BAS6 harboring embB M306V mutant gene by modified conventional agar proportion method
[30] = test system: Mycobacterium tuberculosis; experiment: Antibacterial activity against Mycobacterium tuberculosis B95 harboring embB ATG-ATA (M306I) mutation in embB by modified conventional agar proportion method
[31] = test system: Mycobacterium tuberculosis; experiment: Antibacterial activity against Mycobacterium tuberculosis B51 harboring embB ATG-ACG (M306T) mutation in embB by modified conventional agar proportion method
[32] = test system: Mycobacterium tuberculosis; experiment: Antibacterial activity against Mycobacterium tuberculosis Rv31 harboring embB GAT-TAT (D328Y) mutation in embB by modified conventional agar proportion method
[33] = test system: Mycobacterium tuberculosis; experiment: Antibacterial activity against HYG cassette-positive Mycobacterium tuberculosis RvAS3 harboring embB M306I mutant gene by modified conventional agar proportion method
[34] = test system: Mycobacterium tuberculosis; experiment: Antibacterial activity against Mycobacterium tuberculosis B96 harboring embB GAT-TAT (D328Y) mutation in embB by modified conventional agar proportion method
[35] = test system: Mycobacterium tuberculosis; experiment: Antibacterial activity against Mycobacterium tuberculosis B54 harboring embB ATG-ATA (M306I) mutation in embB by modified conventional agar proportion method
[36] = test system: Mycobacterium tuberculosis; experiment: Antibacterial activity against Mycobacterium tuberculosis Rv18 harboring embB ATG-GTG (M306V) mutation in embB by modified conventional agar proportion method
[37] = test system: Mycobacterium tuberculosis; experiment: Antibacterial activity against Mycobacterium tuberculosis B92 harboring embB GAC-GCC (D354A) mutation in embB by modified conventional agar proportion method
[38] = test system: Mycobacterium tuberculosis; experiment: Antibacterial activity against HYG cassette-positive Mycobacterium tuberculosis BAS5 harboring embB M306V mutant gene by modified conventional agar proportion method
[39] = test system: Mycobacterium tuberculosis; experiment: Antibacterial activity against HYG cassette-negative EMB-resistant Mycobacterium tuberculosis B52 harboring embB M306V mutant gene by modified conventional agar proportion method
[40] = test system: Mycobacterium tuberculosis; experiment: Antibacterial activity against Mycobacterium tuberculosis Rv11 harboring embB ATG-CTG (M306L) mutation in embB by modified conventional agar proportion method
[41] = test system: Mycobacterium tuberculosis; experiment: Antibacterial activity against HYG cassette-negative EMB-resistant Mycobacterium tuberculosis Rv44 harboring embB M306I mutant gene by modified conventional agar proportion method
[42] = test system: Mycobacterium tuberculosis; experiment: Antibacterial activity against Mycobacterium tuberculosis Rv44 harboring embB ATG-ATA (M306I) mutation in embB by modified conventional agar proportion method
[43] = test system: Mycobacterium tuberculosis; experiment: Antibacterial activity against Mycobacterium tuberculosis B85 harboring embB ATG-ATA (M306I) mutation in embB by modified conventional agar proportion method
[44] = test system: Mycobacterium tuberculosis; experiment: Antibacterial activity against Mycobacterium tuberculosis Rv8 harboring embB ATG-GTG (M306V) mutation in embB by modified conventional agar proportion method

`CC[C@@H](CO)NCCN[C@@H](CC)CO` [ETHAMBUTOL] showed an MIC [1] of 40 µg/mL (≈ 196 µM), an MIC [2] of 20 µg/mL (≈ 97.9 µM) and an MIC [3] of 10 µg/mL (≈ 48.9 µM). It also gave an MIC [4] of 20 µg/mL (≈ 97.9 µM), an MIC [5] of 10 µg/mL (≈ 48.9 µM) and an MIC [6] of 20 µg/mL (≈ 97.9 µM). The MIC [7] was 20 µg/mL (≈ 97.9 µM), the MIC [8] was 10 µg/mL (≈ 48.9 µM) and the MIC [9] was 20 µg/mL (≈ 97.9 µM). It also gave an MIC [10] of 10 µg/mL (≈ 48.9 µM), an MIC [11] of 20 µg/mL (≈ 97.9 µM) and an MIC [12] of 20 µg/mL (≈ 97.9 µM). For the same compound, the MIC [13] was 20 µg/mL (≈ 97.9 µM), the MIC [14] was 20 µg/mL (≈ 97.9 µM) and the MIC [15] was 20 µg/mL (≈ 97.9 µM). For the same compound, the MIC [16] was 20 µg/mL (≈ 97.9 µM), the MIC [17] was 20 µg/mL (≈ 97.9 µM) and the MIC [18] was 20 µg/mL (≈ 97.9 µM). For the same compound, the MIC [19] was 20 µg/mL (≈ 97.9 µM), the MIC [20] was 20 µg/mL (≈ 97.9 µM) and the MIC [21] was 20 µg/mL (≈ 97.9 µM). For the same compound, the MIC [22] was 10 µg/mL (≈ 48.9 µM), the MIC [23] was 20 µg/mL (≈ 97.9 µM) and the MIC [24] was 20 µg/mL (≈ 97.9 µM). For the same compound, the MIC [25] was 20 µg/mL (≈ 97.9 µM), the MIC [26] was 20 µg/mL (≈ 97.9 µM) and the MIC [27] was 20 µg/mL (≈ 97.9 µM). It also gave an MIC [28] of 20 µg/mL (≈ 97.9 µM), an MIC [29] of 20 µg/mL (≈ 97.9 µM) and an MIC [30] of 20 µg/mL (≈ 97.9 µM). For the same compound, the MIC [31] was 20 µg/mL (≈ 97.9 µM), the MIC [32] was 20 µg/mL (≈ 97.9 µM) and the MIC [33] was 10 µg/mL (≈ 48.9 µM). The MIC [34] was 20 µg/mL (≈ 97.9 µM), the MIC [35] was 20 µg/mL (≈ 97.9 µM) and the MIC [36] was 20 µg/mL (≈ 97.9 µM). The MIC [37] was 20 µg/mL (≈ 97.9 µM), the MIC [38] was 20 µg/mL (≈ 97.9 µM) and the MIC [39] was 20 µg/mL (≈ 97.9 µM). For the same compound, the MIC [40] was 20 µg/mL (≈ 97.9 µM), the MIC [41] was 20 µg/mL (≈ 97.9 µM) and the MIC [42] was 20 µg/mL (≈ 97.9 µM). It also gave an MIC [43] of 20 µg/mL (≈ 97.9 µM) and an MIC [44] of 20 µg/mL (≈ 97.9 µM).
